# Experimental data as given in ChEMBL document CHEMBL1129530, “Novel alpha-amino-3-hydroxy-5-methylisoxazole-4-propionate receptor antagonists: synthesis and structure-activity relationships of 6-(1H-imidazol-1-yl)-7-nitro-2,3(1H,4H)-pyrido[2,3-b]pyrazinedione and related compounds” (J Med Chem, 1996).
# Molecular target: Glutamate receptor ionotropic, AMPA (Rattus norvegicus) (UniProt P19491+P19492+P19493+P19490)
# Experiment: Inhibition [3H]AMPA binding to ionotropic glutamate receptor AMPA in rat whole brain membranes in the presence of […] KSCN
# Type: cell membranes
# Details: not given
row,inhibition,Compound
1,31%,Cc1ccc2nc(O)c(O)nc2n1
2,41%,COc1ccc2nc(O)c(O)nc2n1
3,56%,CS(=O)(=O)c1ccc2nc(O)c(O)nc2n1
4,22%,Oc1nc2cccnc2nc1O
5,55%,CSc1ccc2nc(O)c(O)nc2n1
6,37%,Oc1ccc2nc(O)c(O)nc2n1
7,29%,Oc1nc2ccc(Cl)nc2nc1O
8,30%,CNc1ccc2nc(O)c(O)nc2n1
9,74%,Cc1cnc2nc(O)c(O)nc2c1
10,62%,Oc1nc2cncnc2nc1O
11,66%,O=[N+]([O-])c1ccc2nc(O)c(O)nc2n1

# The next lines start with the molecule.
row,Compound,inhibition
1,Oc1nc2ccncc2nc1O,32%
2,Oc1nc2ccc(-n3ccnc3)nc2nc1O,76%
3,Oc1nc2ccc(N3CCOCC3)nc2nc1O,32%

# Molecular target: Glutamate receptor ionotropic, AMPA (Rattus norvegicus, UniProt P19490+P19491+P19492+P19493)
# Experiment: In vitro inhibition of the specific binding of [3H]AMPA to Ionotropic glutamate receptor AMPA in rat whole brain membranes in the presence of […] KSCN
# Type: cell membranes
# Details: not given
row,Compound,Ki
1,O=[N+]([O-])c1cc2nc(O)c(O)nc2nc1[N+](=O)[O-],860 nM
2,COc1nc2[nH]c(=O)c(=O)[nH]c2cc1[N+](=O)[O-],700 nM
3,O=[N+]([O-])c1cnc2nc(O)c(O)nc2c1,1100 nM
4,O=[N+]([O-])c1cc2nc(O)c(O)nc2nc1-n1ccnc1,140 nM
5,O=[N+]([O-])c1cc2nc(O)c(O)nc2nc1N1CCOCC1,920 nM

# Molecular target: Glutamate receptor ionotropic, NMDA 1 (Rattus norvegicus) (UniProt P35439)
# Experiment: (§1) In vitro inhibition of the specific binding of [3H]Gly to N-methyl-D-aspartate glutamate receptor 1 in rat whole brain membranes except cerebellum
# Type: cell membranes
# Details: concentration not given here
row,Compound,inhibition
1,O=c1[nH]c2cc(-n3ccnc3)c([N+](=O)[O-])cc2[nH]c1=O,16%
2,O=[N+]([O-])c1cc2nc(O)c(O)nc2nc1-n1ccnc1,0%
3,O=[N+]([O-])c1cc2nc(O)c(O)nc2nc1N1CCOCC1,14%

# Molecular target: Glutamate receptor ionotropic, NMDA 1 (Rattus norvegicus, UniProt P35439)
# Experiment: as §1
# Type: cell membranes
# Details: not given
row,Compound,Ki
1,O=[N+]([O-])c1cc2nc(O)c(O)nc2nc1[N+](=O)[O-],8000 nM
2,COc1nc2[nH]c(=O)c(=O)[nH]c2cc1[N+](=O)[O-],370 nM
